In PMC11661628, “Cannabis sativa extracts inhibit LDL oxidation and the formation of foam cells in vitro, acting as potential multi-step inhibitors of atherosclerosis development” (PLOS ONE, 2024):
“And” between values parts separate entries of the source, which are not always exact repeats. Equal values may be shown once. Read-outs that look alike come from different tables or passages of the source.

Tests used:
J774.1 cells [1] = experiment: Quantitation of oxLDL endocytosis (DiI-oxLDL spectrofluorometry); format: cell-based, murine; conditions: for effect on oxLDL uptake by the cells (dose-response, Fig 4) / ED50: DiI-oxLDL 10 μg mL^-1, 24 h; for ED50: oxLDL internalization, NE non-effective; for effect of Ca2+ chelation on DiI-oxLDL internalized: BAPTA-AM 5–20 μM, EGTA 4 mM (S8 Fig)
CB2 = conditions: cited from earlier work
GPR55 = conditions: cited from earlier work
CB1 = conditions: cited from earlier work
TRPV1 = conditions: cited from earlier work
LDL = system: LDL; design: method as in PMID 33123676; conditions: already described; cited from earlier work
J774.1 cells [2] = experiment: Cellular toxicity, MTT reduction; conditions: 24 h; for LD50: MTT viability curves; for effect on cell viability and metabolism (MTT): explored range 3–30 μM
Procedure: Cell viability was determined by the mitochondrial-dependent reduction of 3-[4,5-dimethylthiazole-2-yl]-2,5-diphenyltetrazolium bromide (MTT, Merck KGaA) to formazan. […] A control condition with vehicle alone (0.2% DMSO) was also added to each experiment. The medium was replaced with DMEM containing MTT (0.1 mg mL^-1) and the cells were incubated at 37° C for 4 h. After removing the media, formazan crystals were dissolved in DMSO, and the absorbance was registered using the Varioskan plate reader at 560 nm. […] Therapeutic indexes (TI) were calculated as the ratios between the […].

TRPV4 = conditions: read-out: Ki TRPV4; cited from earlier work
rat TRPV1 = system: rat TRPV1; design: method as in PMID 15615864; conditions: cited from earlier work
human TRPV1 = system: human TRPV1; design: method as in PMID 15615864; conditions: cited from earlier work
[3] = S2 Table, ref THC [1–5], CBD [3–6], AEA [2,3,5,8,9], AM251 [5,10–16], AM630 [14,15,17,18], ML184 [22–24], CID16020046 [25], read-out: Ki or IC50, GPR55
[4] = Fig 4, 0.28 µM, 24 h, replicates n=1-3
[5] = Fig 4, 1.39 µM, 24 h, replicates n=1-3
[6] = Fig 4, 2.79 µM, 24 h, replicates n=1-3
[7] = Fig 4, 8.37 µM, 24 h, replicates n=1-3
[8] = Fig 4, 13.95 µM, 24 h, replicates n=1-3
[9] = Fig 4, 0.32 µM, 24 h, replicates n=1-3
[10] = Fig 4, 1.59 µM, 24 h, replicates n=1-3
[11] = Fig 4, 3.18 µM, 24 h, replicates n=1-3
[12] = Fig 4, 12.72 µM, 24 h, replicates n=1-3
[13] = Fig 5 A-C, antagonist alone 5 µM, 24 h, replicates n=1-3

With `Cc1cccc(N2CCN(C(=O)c3cc(S(=O)(=O)N(C)C)ccc3N3CCCC3)CC2)c1C` [ML184, 3-[[4-(2,3-dimethylphenyl)-1-piperazinyl]carbonyl]-N,N-dimethyl-4-(1-pyrrolidinyl) benzenesulfonamide] the “DiI-oxLDL” value (J774.1 cells [1]) was 0.641 µg/mL and 0.711 µg/mL and 0.735 µg/mL, the “increase of DiI-oxLDL uptake” value (J774.1 cells [1]) was ~ 15% and the “µg DiI-oxLDL/mg protein” value (J774.1 cells [1]) was 1.308 µg DiI-oxLDL/mg protein and 1.400 µg DiI-oxLDL/mg protein and 1.366 µg DiI-oxLDL/mg protein. The Ki (CB2) was > 32000 nM, the Ki (GPR55; read-out: Ki GPR55) was 260 nM and the Ki (CB1) was > 32000 nM.
For `CCCCC/C=C\C/C=C\C/C=C\C/C=C\CCCC(=O)NCCO` [AEA, N-arachidonoylethanolamine], the “effect on oxLDL uptake by the cells (dose-response, Fig 4)” value (“effect on oxLDL uptake by the cells” below) (J774.1 cells [1]) is listed as “unable to prevent the uptake of oxLDL”, the Ki (TRPV1) is listed as 270 nM and the Ki (CB1) is listed as 31 to 252 nM.
For `Cc1c(C(=O)NN2CCCCC2)nn(-c2ccc(Cl)cc2Cl)c1-c1ccc(I)cc1` [AM251, 1-(2,4-Dichlorophenyl)-5-(4-iodophenyl)-4-methyl-N-1-piperidinyl-1H-pyrazole-3-carboxamide], the Ki (CB2) is given as 124 nM.
For `C=C(C)[C@@H]1CCC(C)=C[C@H]1c1c(O)cc(CCCCC)cc1O` [CBD, cannabidiol], the “effect on oxLDL uptake by the cells” value (J774.1 cells [1]) is listed as “inhibited oxLDL endocytosis”, the ED50 (J774.1 cells [1]) is listed as 25000 ± 5000 nM and the “protection of LDL from oxidation” value (LDL) is listed as “lack of protection”. The LD50 (J774.1 cells [2]) was 23 ± 1 µM and the Ki (GPR55; [3]) was 354 nM.
For `C=C(C)[C@@H]1CCC(C)=C[C@H]1c1c(O)cc(CCCCC)c(C(=O)O)c1O` [CBDA, cannabidiolic acid], the “effect on oxLDL uptake by the cells” value (J774.1 cells [1]) is given as “inhibited oxLDL endocytosis”, the ED50 (J774.1 cells [1]) is given as 18000 ± 3000 nM and the Ki (CB2) is given as 813 nM. The “protection of LDL from oxidation” value (LDL) was “lack of protection”, the LD50 (J774.1 cells [2]) was > 40 µM and the “effect on cell viability and metabolism (MTT)” value (J774.1 cells [2]) was “no effect”. For the same compound, the Ki (CB1) was 626 nM.
In the case of `Cc1ccc(-c2n[nH]c3c2C(c2cccc(O)c2)N(c2ccc(C(=O)O)cc2)C3=O)cc1` (stereo not drawn) [CID16020046, 4-[4,6-dihydro-4-(3-hydroxyphenyl)-3-(4-methylphenyl)-6-oxopyrrolo[3,4-c]pyrazol-5(1H)-yl]benzoic acid], the “effect of the antagonist on DiI-oxLDL uptake” value (“effect … on DiI-oxLDL uptake” for short) (J774.1 cells [1]) is reported as “did not affect DiI-oxLDL uptake”.
With `CCCCCc1cc2c(c(O)c1C(=O)O)C1C=C(C)CCC1C(C)(C)O2` (stereo not drawn) [THCA, Δ^9-tetrahydrocannabinolic acid] the “effect on oxLDL uptake by the cells” value (J774.1 cells [1]) was “inhibited oxLDL endocytosis”, the “DiI-oxLDL” value (J774.1 cells [1]; [4]) was 5.657 µg/mL and 5.8008 µg/mL and 5.782 µg/mL and the “µg DiI-oxLDL/mg protein” value (J774.1 cells [1]; [4]) was 10.7513 µg DiI-oxLDL/mg protein and 10.8025 µg DiI-oxLDL/mg protein and 11.0708 µg DiI-oxLDL/mg protein. The “DiI-oxLDL” value (J774.1 cells [1]; [5]) was 5.437 µg/mL and 5.452 µg/mL and 5.506 µg/mL, the “µg DiI-oxLDL/mg protein” value (J774.1 cells [1]; [5]) was 9.919 µg DiI-oxLDL/mg protein and 9.956 µg DiI-oxLDL/mg protein and 10.007 µg DiI-oxLDL/mg protein and the “DiI-oxLDL” value (J774.1 cells [1]; [6]) was 5.849 µg/mL and 5.071 µg/mL and 5.133 µg/mL. The “µg DiI-oxLDL/mg protein” value (J774.1 cells [1]; [6]) was 9.9098 µg DiI-oxLDL/mg protein and 9.139 µg DiI-oxLDL/mg protein and 9.494 µg DiI-oxLDL/mg protein, the “DiI-oxLDL” value (J774.1 cells [1]; [7]) was 3.515 µg/mL and 3.542 µg/mL and 3.49 µg/mL and the “µg DiI-oxLDL/mg protein” value (J774.1 cells [1]; [7]) was 6.46 µg DiI-oxLDL/mg protein and 6.3952 µg DiI-oxLDL/mg protein and 6.189 µg DiI-oxLDL/mg protein. For the same compound, the “DiI-oxLDL” value (J774.1 cells [1]; [8]) was 2.689 µg/mL and 2.817 µg/mL and 2.8328 µg/mL, the “µg DiI-oxLDL/mg protein” value (J774.1 cells [1]; [8]) was 4.86 µg DiI-oxLDL/mg protein and 5.27 µg DiI-oxLDL/mg protein and 5.206 µg DiI-oxLDL/mg protein and the ED50 (J774.1 cells [1]) was 12000 ± 1000 nM. The Ki (CB2) was 1650 nM, the “protection of LDL from oxidation” value (LDL) was “lack of protection” and the “effect on cell viability and metabolism (MTT)” value (J774.1 cells [2]) was “no effect”. The Ki (CB1) was 1290 nM.
With `O=C(O)CN(CCOCCOCCN(CC(=O)O)CC(=O)O)CC(=O)O` [EGTA] the “effect of Ca2+ chelation on DiI-oxLDL internalized” value (J774.1 cells [1]; 6 h) was “negligible”.
For `CC(=O)OCOC(=O)CN(CC(=O)OCOC(C)=O)c1ccccc1OCCOc1ccccc1N(CC(=O)OCOC(C)=O)CC(=O)OCOC(C)=O` [BAPTA-2AM], the “effect of Ca2+ chelation on DiI-oxLDL internalized” value (J774.1 cells [1]; 6 h) was “very considerable impact”.
For `CC(C)C[C@H](NC(=O)c1cc2ccccc2s1)C(=O)N1CCN(C(=O)[C@H](CO)NS(=O)(=O)c2ccc(Cl)cc2Cl)CC1` [GSK1016790A, N-[(1S)-1-[[4-[(2S)-2-[[(2,4-dichlorophenyl)sulfonyl]amine]-3-hydroxy-1-oxopropyl]-1-piperazinyl]carbonyl]-3-methylbutyl]benzo [b]thiophene-2-carboxamide], the “increase of DiI-oxLDL uptake” value (J774.1 cells [1]) is listed as ~ 30% and the Ki (TRPV4) is listed as 5 nM.
For `CCCCCc1cc(O)c2c(c1)OC(C)(C)[C@@H]1CCC(C)=C[C@@H]21` [THC, Δ^9-tetrahydrocannabinol], the “DiI-oxLDL” value (J774.1 cells [1]) was 4.013 µg/mL and 4.084 µg/mL and 4.342 µg/mL, the “µg DiI-oxLDL/mg protein” value (J774.1 cells [1]) was 10.0784 µg DiI-oxLDL/mg protein and 9.298 µg DiI-oxLDL/mg protein and 9.028 µg DiI-oxLDL/mg protein and the “effect on oxLDL uptake by the cells” value (J774.1 cells [1]) was “inhibited oxLDL endocytosis”. For the same compound, the “DiI-oxLDL” value (J774.1 cells [1]; [9]) was 5.502 µg/mL and 5.314 µg/mL and 5.656 µg/mL, the “µg DiI-oxLDL/mg protein” value (J774.1 cells [1]; [9]) was 13.3989 µg DiI-oxLDL/mg protein and 14.1131 µg DiI-oxLDL/mg protein and 13.7901 µg DiI-oxLDL/mg protein and the “DiI-oxLDL” value (J774.1 cells [1]; [10]) was 5.307 µg/mL and 5.178 µg/mL and 5.296 µg/mL. For the same compound, the “µg DiI-oxLDL/mg protein” value (J774.1 cells [1]; [10]) was 12.9859 µg DiI-oxLDL/mg protein and 12.4983 µg DiI-oxLDL/mg protein and 12.6611 µg DiI-oxLDL/mg protein, the “DiI-oxLDL” value (J774.1 cells [1]; [11]) was 4.772 µg/mL and 4.841 µg/mL and 4.891 µg/mL and the “µg DiI-oxLDL/mg protein” value (J774.1 cells [1]; [11]) was 12.1912 µg DiI-oxLDL/mg protein and 12.4565 µg DiI-oxLDL/mg protein and 12.6501 µg DiI-oxLDL/mg protein. For the same compound, the “DiI-oxLDL” value (J774.1 cells [1]; [12]) was 2.336 µg/mL and 2.309 µg/mL and 2.423 µg/mL, the “µg DiI-oxLDL/mg protein” value (J774.1 cells [1]; [12]) was 6.7266 µg DiI-oxLDL/mg protein and 6.397 µg DiI-oxLDL/mg protein and 6.486 µg DiI-oxLDL/mg protein and the ED50 (J774.1 cells [1]) was 11000 ± 1000 nM. The “protection of LDL from oxidation” value (LDL) was “protection”, the LD50 (J774.1 cells [2]) was 20 ± 1 µM and the Ki (GPR55; [3]) was 8 to 8.9 nM.
For `Cc1c(C(=O)Nc2cccc(C(F)(F)F)c2)cc(-c2ccccc2)n1CCCN1CCOCC1` [HC067047, 2-methyl-1-(3-morpholin-4-ylpropyl)-5-phenyl-N -[3-(trifluoromethyl)phenyl]pyrrole-3-carboxamide], the “effect … on DiI-oxLDL uptake” value (J774.1 cells [1]) is listed as “did not affect DiI-oxLDL uptake” and the Ki (TRPV4) is listed as 17 to 133 nM.
In the case of `COc1cc(CNC(=O)CCCCC=CC(C)C)ccc1O` [Capsaicin, 8-methyl-N-vanillyl-6-nonenamide], the “increase of DiI-oxLDL uptake” value (J774.1 cells [1]; agonist 50 μM, 6 h, absence of extracts) is reported as ~ 15%.
For `COc1ccc(C(=O)c2c(C)n(CCN3CCOCC3)c3cc(I)ccc23)cc1` [AM630], the “effect of the antagonist on the inhibition of oxLDL uptake by the extracts” value (J774.1 cells [1]) was “unable to counteract the inhibitory effect”, the “DiI-oxLDL” value (J774.1 cells [1]; [13]) was 5.170 µg/mL and 6.331 µg/mL and 3.777 µg/mL and the “µg DiI-oxLDL/mg protein” value (J774.1 cells [1]; [13]) was 10.904 µg DiI-oxLDL/mg protein and 13.538 µg DiI-oxLDL/mg protein and 10.952 µg DiI-oxLDL/mg protein. The Ki (CB2; read-out: Ki CB2) was 31 nM and the Ki (GPR55; [3]) was 1500 nM.
For `CC(C)(C)c1ccc(/C=C/C(=O)Nc2ccc3c(c2)OCCO3)cc1` [AMG9810, 2E-N-(2,3-dihydro-1,4-benzodioxin-6-yl)-3-[4-(1,1-dimethylethyl)phenyl]-2-propenamide], the “effect … on DiI-oxLDL uptake” value (J774.1 cells [1]) is listed as “significant inhibition of DiI-oxLDL uptake”, the IC50 (rat TRPV1) is listed as 85.6 nM and the IC50 (human TRPV1) is listed as 24.5 nM.
